{"source": "patent US20230226005A1", "about": "“Methods of Treating, Ameliorating, Shortening Duration, and/or Reversing Symptoms and/or Complications of a Coronavirus Infection” (Yale University, priority 2020, published 2023)", "key": {"[1]": {"system": "COVID-19 infection", "assay": "Phase IIa study: body-family symptom score", "format": "in vivo", "conditions": "for body-family symptoms, Fitzmaurice mixed effects model, Effect: Camostat vs Placebo"}, "[2]": {"system": "COVID-19 infection", "assay": "Phase IIa study: COVID-19 PRO frequency score", "format": "in vivo, human", "source_text": "Subjects were enrolled in two cohorts. The treatment cohort consists of subjects receiving camostat mesylate, and the control cohort consists of subjects receiving a placebo. […] The control cohort received a placebo four times daily for seven days.\nSubjects self-administered Likert-type symptom score evaluations daily from days 0-14, wherein subjects provided a ranking (i.e., 0—not at all, 1—a little bit, 2—somewhat, 3—quite a bit, and 4—very much) in response to various symptoms (e.g., nose, throat, eyes, chest/respiratory, gastrointestinal, body/systemic, and smell/taste symptoms) (Table 1).\nThe COVID-19 PRO daily self-score tool consists of 39 items that are answered daily by the subject. Items 1-33 are Likert-scale questions (e.g., rated 0-4), wherein 0=not at all, and 4=very much. These items are summed to score the severity of symptoms, wherein a total score of 132 would indicate the greatest severity of symptoms and a score of 0 would indicate no severity of symptoms.\nAdditional statistical models were applied to the raw data, which are provided herein (Tables 8-10)."}, "[3]": {"system": "SARS-CoV-2", "conditions": "600 mg po four times daily for up to 14 days; cited from earlier work"}, "[4]": {"system": "COVID-19 infection", "assay": "Phase IIa study: chest/respiratory-family symptom score", "format": "in vivo"}}}
{"smiles": "CN(C)C(=O)COC(=O)Cc1ccc(OC(=O)c2ccc(NC(=N)N)cc2)cc1", "note": "[camostat, 4-[[4-[(Aminoiminomethyl)amino]benzoyl]oxy]benzeneacetic acid 2-(dimethylamino)-2-oxoethyl ester]", "values": [{"measurement": "body-family symptoms, Fitzmaurice mixed effects model, Camostat", "setting": "[1]; Day 0", "value": "17.1 (1.2)"}, {"measurement": "body-family symptoms, Fitzmaurice mixed effects model, Camostat", "setting": "[1]; Day 1", "value": "14.3 (1.5)"}, {"measurement": "body-family symptoms, Fitzmaurice mixed effects model, Effect", "setting": "[1]; Day 1", "value": "−0.6 (1.7)"}, {"measurement": "body-family symptoms, Fitzmaurice mixed effects model, Camostat", "setting": "[1]; Day 2", "value": "13.6 (1.5)"}, {"measurement": "body-family symptoms, Fitzmaurice mixed effects model, Effect", "setting": "[1]; Day 2", "value": "−2.1 (1.7)"}, {"measurement": "body-family symptoms, Fitzmaurice mixed effects model, Camostat", "setting": "[1]; Day 3", "value": "11.9 (1.5)"}, {"measurement": "body-family symptoms, Fitzmaurice mixed effects model, Effect", "setting": "[1]; Day 3", "value": "−0.8 (1.7)"}, {"measurement": "body-family symptoms, Fitzmaurice mixed effects model, Camostat", "setting": "[1]; Day 4", "value": "8.9 (1.5)"}, {"measurement": "body-family symptoms, Fitzmaurice mixed effects model, Effect", "setting": "[1]; Day 4", "value": "0.9 (1.7)"}, {"measurement": "body-family symptoms, Fitzmaurice mixed effects model, Camostat", "setting": "[1]; Day 5", "value": "7.3 (1.5)"}, {"measurement": "body-family symptoms, Fitzmaurice mixed effects model, Effect", "setting": "[1]; Day 5", "value": "4.2 (1.7)"}, {"measurement": "body-family symptoms, Fitzmaurice mixed effects model, Camostat", "setting": "[1]; Day 6", "value": "5.2 (1.5)"}, {"measurement": "body-family symptoms, Fitzmaurice mixed effects model, Effect", "setting": "[1]; Day 6", "value": "4.4 (1.7)"}, {"measurement": "body-family symptoms, Fitzmaurice mixed effects model, Camostat", "setting": "[1]; Day 7", "value": "4.9 (1.6)"}, {"measurement": "body-family symptoms, Fitzmaurice mixed effects model, Effect", "setting": "[1]; Day 7", "value": "2.8 (1.7)"}, {"measurement": "body-family symptoms, Fitzmaurice mixed effects model, Camostat", "setting": "[1]; Day 8", "value": "3.9 (1.6)"}, {"measurement": "body-family symptoms, Fitzmaurice mixed effects model, Effect", "setting": "[1]; Day 8", "value": "3.1 (1.8)"}, {"measurement": "body-family symptoms, Fitzmaurice mixed effects model, Camostat", "setting": "[1]; Day 9", "value": "3.8 (1.6)"}, {"measurement": "body-family symptoms, Fitzmaurice mixed effects model, Effect", "setting": "[1]; Day 9", "value": "3.1 (1.8)"}, {"measurement": "body-family symptoms, Fitzmaurice mixed effects model, Camostat", "setting": "[1]; Day 10", "value": "3.3 (1.6)"}, {"measurement": "body-family symptoms, Fitzmaurice mixed effects model, Effect", "setting": "[1]; Day 10", "value": "3.1 (1.8)"}, {"measurement": "body-family symptoms, Fitzmaurice mixed effects model, Camostat", "setting": "[1]; Day 11", "value": "3 (1.6)"}, {"measurement": "body-family symptoms, Fitzmaurice mixed effects model, Effect", "setting": "[1]; Day 11", "value": "2.8 (1.8)"}, {"measurement": "body-family symptoms, Fitzmaurice mixed effects model, Camostat", "setting": "[1]; Day 12", "value": "3.8 (1.6)"}, {"measurement": "body-family symptoms, Fitzmaurice mixed effects model, Effect", "setting": "[1]; Day 12", "value": "1.6 (1.8)"}, {"measurement": "body-family symptoms, Fitzmaurice mixed effects model, Camostat", "setting": "[1]; Day 13", "value": "3 (1.6)"}, {"measurement": "body-family symptoms, Fitzmaurice mixed effects model, Effect", "setting": "[1]; Day 13", "value": "2.4 (1.8)"}, {"measurement": "body-family symptoms, Fitzmaurice mixed effects model, Camostat", "setting": "[1]; Day 14", "value": "3.2 (1.6)"}, {"measurement": "body-family symptoms, Fitzmaurice mixed effects model, Effect", "setting": "[1]; Day 14", "value": "2 (1.8)"}, {"measurement": "frequency score, Fitzmaurice mixed effects model, A: Camostat arm", "setting": "[2]; day 0", "value": "6.25 (0.47)"}, {"measurement": "frequency score, Fitzmaurice mixed effects model, B − A (placebo − camostat)", "setting": "[2]; day 0", "value": 0}, {"measurement": "frequency score, Fitzmaurice mixed effects model, A: Camostat arm", "setting": "[2]; day 1", "value": "6.49 (0.57)"}, {"measurement": "frequency score, Fitzmaurice mixed effects model, B − A (placebo − camostat)", "setting": "[2]; day 1", "value": "−0.05 (0.67)"}, {"measurement": "frequency score, Fitzmaurice mixed effects model, A: Camostat arm", "setting": "[2]; day 2", "value": "5.51 (0.59)"}, {"measurement": "frequency score, Fitzmaurice mixed effects model, B − A (placebo − camostat)", "setting": "[2]; day 2", "value": "−0.03 (0.68)"}, {"measurement": "frequency score, Fitzmaurice mixed effects model, A: Camostat arm", "setting": "[2]; day 3", "value": "5.88 (0.58)"}, {"measurement": "frequency score, Fitzmaurice mixed effects model, B − A (placebo − camostat)", "setting": "[2]; day 3", "value": "−0.42 (0.67)"}, {"measurement": "frequency score, Fitzmaurice mixed effects model, A: Camostat arm", "setting": "[2]; day 4", "value": "5.64 (0.58)"}, {"measurement": "frequency score, Fitzmaurice mixed effects model, B − A (placebo − camostat)", "setting": "[2]; day 4", "value": "−1.05 (0.68)"}, {"measurement": "frequency score, Fitzmaurice mixed effects model, A: Camostat arm", "setting": "[2]; day 5", "value": "5.54 (0.58)"}, {"measurement": "frequency score, Fitzmaurice mixed effects model, B − A (placebo − camostat)", "setting": "[2]; day 5", "value": "−0.96 (0.68)"}, {"measurement": "frequency score, Fitzmaurice mixed effects model, A: Camostat arm", "setting": "[2]; day 6", "value": "4.75 (0.58)"}, {"measurement": "frequency score, Fitzmaurice mixed effects model, B − A (placebo − camostat)", "setting": "[2]; day 6", "value": "−0.41 (0.68)"}, {"measurement": "frequency score, Fitzmaurice mixed effects model, A: Camostat arm", "setting": "[2]; day 7", "value": "4.62 (0.59)"}, {"measurement": "frequency score, Fitzmaurice mixed effects model, B − A (placebo − camostat)", "setting": "[2]; day 7", "value": "−0.51 (0.68)"}, {"measurement": "frequency score, Fitzmaurice mixed effects model, A: Camostat arm", "setting": "[2]; day 8", "value": "4.39 (0.6)"}, {"measurement": "frequency score, Fitzmaurice mixed effects model, B − A (placebo − camostat)", "setting": "[2]; day 8", "value": "−0.9 (0.7)"}, {"measurement": "frequency score, Fitzmaurice mixed effects model, A: Camostat arm", "setting": "[2]; day 9", "value": "3.98 (0.59)"}, {"measurement": "frequency score, Fitzmaurice mixed effects model, B − A (placebo − camostat)", "setting": "[2]; day 9", "value": "−0.54 (0.69)"}, {"measurement": "frequency score, Fitzmaurice mixed effects model, A: Camostat arm", "setting": "[2]; day 10", "value": "3.96 (0.6)"}, {"measurement": "frequency score, Fitzmaurice mixed effects model, B − A (placebo − camostat)", "setting": "[2]; day 10", "value": "−0.98 (0.69)"}, {"measurement": "frequency score, Fitzmaurice mixed effects model, A: Camostat arm", "setting": "[2]; day 11", "value": "3.8 (0.6)"}, {"measurement": "frequency score, Fitzmaurice mixed effects model, B − A (placebo − camostat)", "setting": "[2]; day 11", "value": "−0.9 (0.7)"}, {"measurement": "frequency score, Fitzmaurice mixed effects model, A: Camostat arm", "setting": "[2]; day 12", "value": "2.75 (0.6)"}, {"measurement": "frequency score, Fitzmaurice mixed effects model, B − A (placebo − camostat)", "setting": "[2]; day 12", "value": "−0.28 (0.7)"}, {"measurement": "frequency score, Fitzmaurice mixed effects model, A: Camostat arm", "setting": "[2]; day 13", "value": "2.66 (0.62)"}, {"measurement": "frequency score, Fitzmaurice mixed effects model, B − A (placebo − camostat)", "setting": "[2]; day 13", "value": "−0.22 (0.72)"}, {"measurement": "frequency score, Fitzmaurice mixed effects model, A: Camostat arm", "setting": "[2]; day 14", "value": "2.44 (0.61)"}, {"measurement": "frequency score, Fitzmaurice mixed effects model, B − A (placebo − camostat)", "setting": "[2]; day 14", "value": "−0.13 (0.72)"}, {"measurement": "time required for a negative SARS-CoV-2 test (primary endpoint)", "setting": "[3]", "value": "did not show efficacy"}, {"measurement": "chest/respiratory-family symptom score, Fitzmaurice model, Camostat", "setting": "[4]; day 0", "value": "7.5 (0.7)"}, {"measurement": "chest/respiratory-family symptom score, Fitzmaurice model, Camostat", "setting": "[4]; day 1", "value": "7.7 (0.8)"}, {"measurement": "chest/respiratory-family symptom score, Fitzmaurice model, Effect (placebo vs camostat)", "setting": "[4]; day 1", "value": "−0.1 (0.9)"}, {"measurement": "chest/respiratory-family symptom score, Fitzmaurice model, Camostat", "setting": "[4]; day 2", "value": "7.6 (0.8)"}, {"measurement": "chest/respiratory-family symptom score, Fitzmaurice model, Effect (placebo vs camostat)", "setting": "[4]; day 2", "value": "−0.5 (0.9)"}, {"measurement": "chest/respiratory-family symptom score, Fitzmaurice model, Camostat", "setting": "[4]; day 3", "value": "7.5 (0.8)"}, {"measurement": "chest/respiratory-family symptom score, Fitzmaurice model, Effect (placebo vs camostat)", "setting": "[4]; day 3", "value": "−0.4 (0.9)"}, {"measurement": "chest/respiratory-family symptom score, Fitzmaurice model, Camostat", "setting": "[4]; day 4", "value": "8 (0.8)"}, {"measurement": "chest/respiratory-family symptom score, Fitzmaurice model, Effect (placebo vs camostat)", "setting": "[4]; day 4", "value": "−1.7 (0.9)"}, {"measurement": "chest/respiratory-family symptom score, Fitzmaurice model, Camostat", "setting": "[4]; day 5", "value": "7 (0.8)"}, {"measurement": "chest/respiratory-family symptom score, Fitzmaurice model, Effect (placebo vs camostat)", "setting": "[4]; day 5", "value": "−0.8 (0.9)"}, {"measurement": "chest/respiratory-family symptom score, Fitzmaurice model, Camostat", "setting": "[4]; day 6", "value": "6.6 (0.8)"}, {"measurement": "chest/respiratory-family symptom score, Fitzmaurice model, Effect (placebo vs camostat)", "setting": "[4]; day 6", "value": "−0.7 (0.9)"}]}
